Results taken from patent USRE39591E1, “6-O-substituted ketolides having antibacterial activity” (Abbott Laboratories, priority 1996, dated 2007).

Tested on: up to 32 different microorganisms
Test: in vitro antibacterial activity (MIC), agar dilution on Brain Heart Infusion (BHI) agar with Steers replicator
Format: cell-based
Details: unit assumed
Outline: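 Agar dilution, 12 plates/compound; inoc 1:100 (1:10 Micrococcus, Streptococcus); 35°-37° C, 20–24 h. Erythromycin A reference plate plus drug-free growth controls at start and end. Endpoint = no growth/slight haze/sparse colonies.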

| SMILES | MIC (organism code AA) [µg/mL] | MIC (organism code BB) [µg/mL] | MIC (organism code CC) [µg/mL] | MIC (organism code DD) [µg/mL] | MIC (organism code EE) [µg/mL] | MIC (organism code FF) [µg/mL] | MIC (organism code GG) [µg/mL] | MIC (organism code HH) [µg/mL] | MIC (organism code II) [µg/mL] | MIC (organism code JJ) [µg/mL] | MIC (organism code KK) [µg/mL] | MIC (organism code LL) [µg/mL] | MIC (organism code MM) [µg/mL] | MIC (organism code NN) [µg/mL] | MIC (organism code OO) [µg/mL] | MIC (organism code PP) [µg/mL] | MIC (organism code QQ) [µg/mL] | MIC (organism code RR) [µg/mL] | MIC (organism code SS) [µg/mL] | MIC (organism code TT) [µg/mL] | further results |
| --- | --- | --- | --- | --- | --- | --- | --- | --- | --- | --- | --- | --- | --- | --- | --- | --- | --- | --- | --- | --- | --- |
| CCC1OC(=O)C(C)C(=O)C(C)C(OC2OC(C)CC(N(C)C)C2O)C(C)(OCC#CC=Cc2ccccc2)CC(C)C(=O)C(C)C2NC(=O)OC12C (stereo not drawn) [Example 291, Compound of Formula (IX): L is CO, T is NH, R is —CH2C≡C-(2-phenylethenyl)] | 0.05 | 0.05 | > 100 | 0.05 | 0.05 | 0.05 | > 100 | 0.05 | 0.02 | ≤ 0.005 | ≤ 0.005 | ≤ 0.005 | 3.1 | 0.1 | ≤ 0.005 | 0.05 | 25 | 0.1 | 50 | > 100 | MIC (organism code UU): 0.39 µg/mL; MIC (organism code VV): 0.01 µg/mL; MIC (organism code WW): 2 µg/mL; MIC (organism code XX): ≤ 0.004 µg/mL; MIC (organism code YY): ≤ 0.004 µg/mL; MIC (organism code ZZ): 1 µg/mL; MIC (organism code ZZA): 0.125 µg/mL |
| CC[C@H]1OC(=O)[C@H](C)C(=O)[C@H](C)[C@@H](O[C@@H]2O[C@H](C)C[C@H](N(C)C)[C@H]2O)[C@@](C)(OCC#Cc2ccc3ncccc3c2)C[C@@H](C)C(=O)[C@H](C)[C@H]2NC(=O)O[C@@]21C [Example 254, Compound of Formula (IX): L is CO, T is NH, R is —CH2—C≡C-(6-quinolyl)] | 0.1 | 0.1 | > 100 | 0.1 | 0.1 | 0.1 | > 100 | 0.1 | 0.02 | ≤ 0.005 | 0.01 | 0.01 | 0.78 | 0.1 | 0.02 | 0.1 | 25 | 0.2 | 100 | > 100 | MIC (organism code UU): 0.78 µg/mL; MIC (organism code VV): 0.01 µg/mL; MIC (organism code WW): 2 µg/mL; MIC (organism code XX): ≤ 0.004 µg/mL; MIC (organism code YY): ≤ 0.004 µg/mL; MIC (organism code ZZ): 2 µg/mL; MIC (organism code ZZA): 0.25 µg/mL |
| CC[C@H]1OC(=O)[C@H](C)C(=O)[C@H](C)[C@@H](O[C@@H]2O[C@H](C)C[C@H](N(C)C)[C@H]2O)[C@@](C)(OCCNCCc2ccccc2)C[C@@H](C)C(=O)[C@H](C)[C@H]2NC(=O)O[C@@]21C [Example 222, Compound of Formula (IX): L is CO, T is NH, R is —CH2CH2NHCH2CH2Phenyl] | 0.2 | 0.1 | > 100 | 0.39 | 0.2 | 0.2 | > 100 | 0.2 | 0.02 | ≤ 0.005 | 0.02 | ≤ 0.005 | > 100 | 0.39 | 0.01 | 0.2 | 25 | 0.1 | 25 | > 100 | MIC (organism code UU): 0.78 µg/mL; MIC (organism code VV): 0.2 µg/mL; MIC (organism code WW): 4 µg/mL; MIC (organism code XX): 0.03 µg/mL; MIC (organism code YY): 0.06 µg/mL; MIC (organism code ZZ): > 128 µg/mL; MIC (organism code ZZA): 2 µg/mL |
| CC[C@H]1OC(=O)[C@H](C)C(=O)[C@H](C)[C@@H](O[C@@H]2O[C@H](C)C[C@H](N(C)C)[C@H]2O)[C@@](C)(OCC#Cc2ccc3ccccc3c2)C[C@@H](C)C(=O)[C@H](C)[C@H]2NC(=O)O[C@@]21C [Example 251, Compound of Formula (IX): L is CO, T is NH, R is —CH2—C≡C-(2-naphthyl)] | 0.1 | 0.1 | > 100 | 0.1 | 0.1 | 0.1 | > 100 | 0.1 | 0.1 | 0.02 | 0.05 | 0.05 | 6.2 | 0.2 | 0.02 | 0.2 | > 100 | 1.56 | > 100 | > 100 | MIC (organism code UU): 0.2 µg/mL; MIC (organism code VV): 0.05 µg/mL; MIC (organism code WW): 16 µg/mL; MIC (organism code XX): 0.125 µg/mL; MIC (organism code YY): 0.25 µg/mL; MIC (organism code ZZ): > 128 µg/mL; MIC (organism code ZZA): 1 µg/mL |
